Results taken from patent publication US20180133327A1, “Cell Penetrating Peptides and Complexes Comprising the Same” (Amal Therapeutics SA, priority 2015, published 2018).

What was measured:
[1] = system: CFSE-labeled naïve OVA257-264-specific CD8+ T cells from OT-1 TCR transgenic mice; experiment: In vitro epitope presentation assay, MHC class I (BMDCs, proliferation of OT-1 T cells); format: cell-based, mouse; conditions: for in vitro proliferation of CD8 T cells (MHC class I presentation): BMDCs loaded 4 h with 300 nM ZxxOVACD8CD4, LPS o.n., 4 days
Experimental: (§1) BMDCs were loaded 4 h with 300nM of the different Zebra CPP truncation conjugated to both ovalbumin CD8 and CD4 epitopes (Z13OVACD8CD4, Z15OVACD8CD4 and Z18OVACD8CD4), then washed and incubated o.n. with 100 ng/ml of LPS. Efficient MHC class I or class II-restricted presentation was monitored after 4 days with CFSE-labeled naïve OVA257-264-specific CD8^+T cells from OT-1 T cell receptor (TCR) transgenic mice OT1 cells (A) or CFSE-labeled naïve OVA323-339-specific CD^+T cells from OT-2 T cell TCR transgenic mice respectively. As positive control, BMDCs were pulsed for 1 h with 5 uM peptide. Data from one experiment representative of three independent experiments.
BMDCs were loaded with 0.3 μM of each Zebra CPP truncation (Z13 to Z20) conjugated to OVACD8 epitope as described above for 4 hours at 37° C., washed 3 times, then matured overnight at 37° C. with 100 ng/ml LPS (from Salmonella abortus, equi S-form, Enzo Life Sciences). Antigen-loaded mature BMDC were then mixed at a ratio of 1:10 with OT-1 T cell receptor (TCR) transgenic mice splenocytes that had been stained with 10 μM 5-(and 6) Carboxyfluorescein diacetate succinimidyl ester (CFSE) (Life Technologies). After 4 days co-incubation of spleen cells and BMDCs, antigen-specific proliferation was assessed by flow cytometry, measuring CFSE dilution on CD8 T cells and live-gated cells. OT-1 mice express TCR specific for MHC class I restricted OVA257-264.
(§2) In order to assess the capacity of the ZEBRA CPP truncations to stimulate an integrated immune response including CD4 T cells, antigenic cargoes were produced that included both CD8 and CD4 T cell epitopes from OVA, and conjugated to Z13, Z15 and Z18. Accordingly, the following constructs (Z13OVACD8CD4, Z15OVACD8CD4 and Z18OVACD8CD4) were synthesized:
(§3) Processing and presentation of the CD8 and CD4 T cell epitopes were monitored, as described in Example 2 for CD8 T cell epitopes, by measuring the in vitro proliferation of naïve OT-1 T cells (CD8 T cell epitopes; FIG. 4A) and OVA323-339-specific CD4^+ T cells from OT-2 T cell TCR transgenic mice, respectively (FIG. 4B). Briefly, OT-2 T cell TCR transgenic mice express TCR specific for MHC class II restricted OVA323-339.

[2] = system: OVA323-339-specific CD4+ T cells from OT-2 T cell TCR transgenic mice; experiment: In vitro epitope presentation assay, MHC class II (BMDCs, proliferation of OT-2 T cells); format: cell-based, mouse; conditions: for in vitro proliferation of CD4 T cells (MHC class II presentation): BMDCs loaded 4 h with 300 nM ZxxOVACD8CD4, LPS o.n., 4 days
Experimental: as §1, §2, §3

[3] = system: human MART1-specific CD8 T cells; experiment: In vitro epitope presentation (MHC I) assay by human dendritic cells; format: cell-based; conditions: human monocyte-derived DCs loaded with 1 μM Zxx-MART1 for 4 h; intracellular staining for CD107, IFN-γ and TNF-α
Experimental: Human monocyte-derived DCs were loaded with 1 μM of scramble-MART1, Z13-MART1, Z14-MART1, Z15-MART1 or Z18-MART1 for 4 h, wash and then incubated o.n. at 37° C. Specific TCR-transfected T cells were then added to DCs and incubated for 5 h with monensin and brefeldinA before intracellular FACS staining for CD107, IFN-γ and TNF-α.
In order to assess the capacity of the ZEBRA CPP truncations to promote epitope presentation by human DCs, the following constructs (Z13-MART1, Z14-MART1, Z15-MART1 and Z18-MART1, with each of the Z13, Z14, Z15 and Z18 CPP conjugated to the HLA-A2 epitope of the tumor associated antigen (TAA) MART1)) were synthesized:
These constructs (Z13, Z14, Z15, and Z18 CPPs conjugated to the HLA-A2 epitope of the tumor associated antigen (TAA) MART1) were assessed for their capacity to promote epitope presentation on MHC class I by human DCs. To this purpose, DCs from an HLA-A2+ donor were prepared from elutriated monocytes, cultured in CelIGro DC medium (CellGenix, Freiburg, Germany) with granulocyte-macrophage colony-stimulating factor (GM-CSF; 2500 U/ml) (Leucomax; Schering-Plough, Kenilworth, N.J.) and interleukin-4 (IL-4; 1000 U/ml) (CellGenix). The immature DCs were matured with cytokines: IL-1β (10 ng/ml), IL-6 (1000 U/ml), tumor necrosis factor α (TNFα; 10 ng/ml) (all from CellGenix) and prostaglandin E2 (1 μg/ml) (Sigma-Aldrich). DCs were rested in CellGro DC medium for 2 hours and loaded with 1 μM Scramble-MART1, Z13-MART1, Z14-MART1, Z15-MART-1 or Z18-MART1 for 4 hrs at 37° C. before being washed once and plated at 300 000 cells per well in round-bottomed 96-well plates. Non-peptide loaded DCs were used as a negative control. T cells were expanded from peripheral blood mononuclear cells using Dynabeads ClinExVivo CD3/CD28 (Life Technologies, Oslo, Norway). Expanded T cells (day 10 post activation) were transfected with the DMFS TCR specific for MART1 by mRNA electroporation. T cells were co-incubated with DCs at a ratio of 1:2 for 5 hours in the presence of GolgiPlug and GolgiStop (both BD Biosciences) before intracellular staining was performed using the following antibodies after FcR blocking; CD4 (RPAT4), CD8 (RPAT8), CD107a (H4A3) (BD Biosciences), IFN-γ (4S.B3) and TNF-α (MAb11) (BD Biosciences), all from eBioscience except where noted. Fixation and permabilization was performed using the PerFix kit from Beckman Coulter according to manufacturer's instructions. Cells were analysed using an LSR II flow cytometer (BD Biosciences) and results were processed with Kaluza (Beckman Coulter) software. All conditions were tested in duplicate, and the experiment was repeated up to three times.

[4] = ZxxOVACD8CD4, 300 nM, compared with Z13 or Z15

| Sequence | in vitro proliferation of CD8 T cells (MHC class I presentation) [1] | in vitro proliferation of CD4 T cells (MHC class II presentation) [2] | stimulation of human MART1-specific CD8 T cells [3] | efficiency of DC transduction and cargo delivery into the MHC class I antigen processing pathway [1, 4] | efficiency of DC transduction and cargo delivery into the MHC class II antigen processing pathway [2, 4] |
| --- | --- | --- | --- | --- | --- |
| KRYKNRVASRKSRAKFK (CPP Z15) [ZEBRA CPP truncation] | proliferation of both CD8 and CD4 T cells occurred | proliferation of both CD8 and CD4 T cells occurred | particularly efficacious | – | – |
| KRYKNRVASRKSRAKFKQLLQHYREVAAAKSSENDRLRLLLK [Z13] | proliferation of both CD8 and CD4 T cells occurred | proliferation of both CD8 and CD4 T cells occurred | particularly efficacious | – | – |
| KRYKNRVASRKSRAKFKQLLQHYREVAAAK [Z14] | – | – | particularly efficacious | – | – |
| REVAAAKSSENDRLRLLLK [Z18] | proliferation of both CD8 and CD4 T cells occurred | proliferation of both CD8 and CD4 T cells occurred | markedly less efficient | less efficient | less efficient |
